Data on 23 compounds can be found in patent US12281079B2, “Quinoline derivatives, processes for their preparation and uses thereof for the treatment of cancer” (Lead Discovery Center GmbH, priority 2019, dated 2025).

Counter-ions that a name gives are not always drawn.

Experiment [1] concerns mitochondrial transcription (7S RNA) in HeLa cells. Kind of experiment: Quantitative real time-PCR assay of inhibition of mitochondrial transcription (7S RNA) in HeLa cells. It counts as cell-based. The settings on record: Homo sapiens, 4 h compound incubation, according to Example 5, read-out: cellular qPCR assay. The method, then: Quantitative real-time PCR (qRT-PCR), based on the TaqMan™ (Thermo Fisher Scientific, Waltham Mass.) technology, was carried out essentially as described in Held et al. (1996). HeLa cells were plated one day before compound treatment in RPMI medium supplemented with 10% Fetal Calf Serum and 2 mM L-glutamine. Cells were incubated with dilution series of compounds or vehicle (DMSO) for 4 h, prior to harvest and extraction of the RNA using the RNeasy Mini Kit (Qiagen, Hilden D), according to the manufacturer's instructions. RNA concentrations were measured spectroscopically, using a NanoDrop-2000 (Thermo Fisher Scientific, Waltham Mass.) and normalized prior to cDNA synthesis, using a ‘High-Capacity cDNA Reverse Transcription Kit’ (Thermo Fisher Scientific, Waltham Mass.). qRT-PCR was carried out using the ‘TaqMan Fast Advance Master Mix’ (Thermo Fisher Scientific, Waltham Mass.) on a 7500 Fast Real-Time PCR machine (Applied Biosystems, Foster City Calif.)
For these measurements, three genes were used to compare the effect of the scrutinized compounds in relation to their concentration. The POLRMT-gene was used to detect potential influences on nuclear transcription. Mitochondrial transcription in vivo was monitored by measurements 7S RNA. The TBP (TATA-box binding protein) gene was employed as the control (housekeeping gene) during qRT-PCR. The short-lived mitochondrial 7S RNA, which is not post-transcriptionally stabilized, allowed us to monitor rapid changes in mitochondrial transcription activity following compound addition. Biological triplicates were analyzed using the comparative CT Method (ΔΔCt) method (Bubner and Baldwin, 2004) and reported as Rq % values (Rq=Relative quantification=2−ΔΔCt).
(Real-time PCR tracks product formation cycle by cycle.)

Experiment [2] has as its target mitochondrial RNA polymerase (POLRMT) (Mus musculus, UniProt Q8BKF1). Briefly: Homogeneous TR-FRET assay for mitochondrial transcription activity. The class given is biochemical. The note with it: homogeneous TR-FRET assay according to Example 4. In a few lines: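 Read-out is TR-FRET (ex 340, em 665 nm) from two adjacent labelled DNA probes annealing to the 407 bp transcript after EDTA/700 mM NaCl stop. Reaction: murine POLRMT, TFAM, TFB2M and LSP plasmid template, compound 10 μM or serial dilution, 10 min rt preincubation, 500 μM each nucleotide, 2 h rt.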
In general terms: In TR-FRET formats the signal depends on donor and acceptor labels being close together.

mitochondrial RNA polymerase (POLRMT), sequence (Q8BKF1 42-1207): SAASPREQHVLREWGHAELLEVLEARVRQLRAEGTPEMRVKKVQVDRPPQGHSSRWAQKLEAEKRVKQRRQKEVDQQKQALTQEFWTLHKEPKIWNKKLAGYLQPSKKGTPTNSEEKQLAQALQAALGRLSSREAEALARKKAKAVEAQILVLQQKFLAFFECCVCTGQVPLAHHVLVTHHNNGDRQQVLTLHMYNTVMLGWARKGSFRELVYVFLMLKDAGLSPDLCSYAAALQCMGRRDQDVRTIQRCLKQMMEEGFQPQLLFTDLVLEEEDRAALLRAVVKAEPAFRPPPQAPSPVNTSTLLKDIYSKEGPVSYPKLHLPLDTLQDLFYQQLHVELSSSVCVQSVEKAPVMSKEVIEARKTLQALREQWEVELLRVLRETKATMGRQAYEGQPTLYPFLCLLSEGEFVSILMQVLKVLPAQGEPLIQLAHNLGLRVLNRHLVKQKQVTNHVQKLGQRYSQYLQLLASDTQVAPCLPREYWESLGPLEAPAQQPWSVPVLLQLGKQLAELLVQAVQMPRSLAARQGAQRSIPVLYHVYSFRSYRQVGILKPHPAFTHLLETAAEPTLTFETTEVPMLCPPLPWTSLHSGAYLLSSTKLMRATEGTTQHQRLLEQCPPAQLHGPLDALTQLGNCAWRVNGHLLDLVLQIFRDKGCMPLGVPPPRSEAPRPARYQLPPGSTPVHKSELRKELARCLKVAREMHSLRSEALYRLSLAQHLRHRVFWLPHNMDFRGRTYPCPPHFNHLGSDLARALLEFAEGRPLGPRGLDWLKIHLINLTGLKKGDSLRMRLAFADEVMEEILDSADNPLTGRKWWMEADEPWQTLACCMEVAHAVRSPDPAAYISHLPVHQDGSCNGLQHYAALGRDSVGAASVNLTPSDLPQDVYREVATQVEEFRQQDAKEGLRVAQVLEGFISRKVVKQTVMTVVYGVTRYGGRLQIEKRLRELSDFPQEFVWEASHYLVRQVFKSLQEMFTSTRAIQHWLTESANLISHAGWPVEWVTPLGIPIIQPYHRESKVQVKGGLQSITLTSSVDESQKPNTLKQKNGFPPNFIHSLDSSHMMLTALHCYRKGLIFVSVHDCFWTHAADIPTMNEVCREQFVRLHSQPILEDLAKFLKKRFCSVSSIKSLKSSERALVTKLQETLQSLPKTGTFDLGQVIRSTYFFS

For `Cc1ccccc1-c1cc(Cl)nc2cc(O[C@H](C)C(=O)N3CCC[C@H](C(=O)O)C3)ccc12` [Compound 25, (3S)-1-[(2R)-2-[[2-chloro-4-(o-tolyl)-7-quinolyl]oxy]propanoyl]piperidine-3-carboxylic acid], the IC50 lay in the range of 10 to 50 nM in experiment [1] and 20 to 100 nM in experiment [2].
Regarding `C[C@@H](Oc1ccc2c(-c3ccc(F)cc3Cl)ccnc2c1)C(=O)Nc1cccc(C(=O)O)c1` [Compound 26, 3-[[(2R)-2-[[4-(2-chloro-4-fluoro-phenyl)-7-quinolyl]oxy]propanoyl]amino]benzoic acid], the IC50 in experiment [1] lay in the range of 50 to 500 nM; in experiment [2], 20 to 100 nM.
On the same counts, the results for `CCOC(=O)[C@H]1CCCN(C(=O)[C@@H](C)Oc2ccc3c(-c4ccc(F)cc4Cl)ccnc3c2)C1` [Compound 27, ethyl (3S)-1-[(2R)-2-[[4-(2-chloro-4-fluoro-phenyl)-7-quinolyl]oxy]propanoyl]piperidine-3-carboxylate] are 500 to 5000 nM and 20 to 100 nM.
On the same counts, the results for `CCC(=O)N1CCN(C(=O)[C@@H](C)Oc2ccc3c(-c4ccc(F)cc4Cl)ccnc3c2)CC1` [Compound 28, (R)-2-((4-(2-chloro-4-fluorophenyl)quinolin-7-yl)oxy)-1-(4-propionylpiperazin-1-yl)propan-1-one] are 10 to 50 nM and 100 to 1000 nM.
In the same order, the values of `C[C@@H](Oc1ccc2c(-c3ccccc3Cl)ccnc2c1)C(=O)OC(C)(C)C` [Compound 29, tert-butyl (2R)-2-[[4-(2-chlorophenyl)-7-quinolyl]oxy]propanoate] are less than 10 nM and 100 to 1000 nM.
Take `C[C@@H](Oc1ccc2c(-c3ccc(F)cc3Cl)ccnc2c1)C(=O)N1CCC[C@H](C#N)C1` [Compound 30, (3S)-1-[(2R)-2-[[4-(2-chloro-4-fluoro-phenyl)-7-quinolyl]oxy]propanoyl]piperidine-3-carbonitrile]: the values for the IC50 in experiment [1] and in experiment [2] were 10 to 50 nM and 100 to 1000 nM, respectively.
With `Cc1cc(-c2ccccc2C)c2ccc(O[C@H](C)C(=O)N3CCC[C@H](C(=O)O)C3)cc2n1` [Compound 31, (3S)-1-[(2R)-2-[[2-methyl-4-(o-tolyl)-7-quinolyl]oxy]propanoyl]piperidine-3-carboxylic acid], the IC50 in experiment [1] was less than 10 nM; in experiment [2], 100 to 1000 nM.
On the same counts, the results for `CC(C)N(C)C(=O)[C@@H](C)Oc1ccc2c(-c3ccc(F)cc3Cl)ccnc2c1` [Compound 32, (2R)-2-[[4-(2-chloro-4-fluoro-phenyl)-7-quinolyl]oxy]-N-isopropyl-N-methyl-propanamide] are 10 to 50 nM and 100 to 1000 nM.
In the same order, the values of `C[C@@H](Oc1ccc2c(-c3ccccc3Cl)cc(Cl)nc2c1)C(=O)N1CCC[C@H](C(=O)O)C1` [Compound 34, (3S)-1-[(2R)-2-[[2-chloro-4-(2-chlorophenyl)-7-quinolyl]oxy]propanoyl]piperidine-3-carboxylic acid] are 10 to 50 nM and 100 to 1000 nM.
In the same order, the values of `Cc1cc(F)ccc1-c1cc(Cl)nc2cc(O[C@H](C)C(=O)N3CCC[C@H](C(=O)O)C3)ccc12` [Compound 35, (3S)-1-[(2R)-2-[[2-chloro-4-(4-fluoro-2-methyl-phenyl)-7-quinolyl]oxy]propanoyl]piperidine-3-carboxylic acid] are less than 10 nM and 100 to 1000 nM.
`CC(C)OC(=O)[C@@H](C)Oc1ccc2c(-c3ccccc3Cl)ccnc2c1` [Compound 36, (R)-isopropyl 2-((4-(2-chlorophenyl)quinolin-7 yl)oxy)propanoate FA salt]: the IC50 in experiment [1] was in the range of 50 to 500 nM; in experiment [2], 100 to 1000 nM.
In the same order, the values of `CNC(=O)[C@H]1CCCN(C(=O)[C@@H](C)Oc2ccc3c(-c4ccc(F)cc4Cl)ccnc3c2)C1` [Compound 38, (3S)-1-[(2R)-2-[[4-(2-chloro-4-fluoro-phenyl)-7-quinolyl]oxy]propanoyl]-N-methyl-piperidine-3-carboxamide] are 10 to 50 nM and 100 to 1000 nM.
On the same counts, the results for `C[C@@H](Oc1ccc2c(-c3ccc(F)cc3Cl)ccnc2c1)C(=O)N1CC[C@@H](CC(=O)O)C1` [Compound 39, 2-[(3S)-1-[(2R)-2-[[4-(2-chloro-4-fluoro-phenyl)-7-quinolyl]oxy]propanoyl]pyrrolidin-3-yl]acetic acid] are 50 to 500 nM and 100 to 1000 nM.
In the same order, the values of `C[C@@H](Oc1ccc2c(-c3ccc(F)cc3Cl)ccnc2c1)C(=O)N1CC[C@H](CC(=O)O)C1` [Compound 40, 2-[(3R)-1-[(2R)-2-[[4-(2-chloro-4-fluoro-phenyl)-7-quinolyl]oxy]propanoyl]pyrrolidin-3-yl]acetic acid] are 50 to 500 nM and 100 to 1000 nM.
Regarding `CCOC(=O)[C@H]1CCCN(C(=O)[C@@H](C)Oc2ccc3c(-c4ccccc4Cl)cc(F)nc3c2)C1` [Compound 41, ethyl (3S)-1-[(2R)-2-[[4-(2-chlorophenyl)-2-fluoro-7-quinolyl]oxy]propanoyl]piperidine-3-carboxylate], the IC50 in experiment [1] lay in the range of 500 to 5000 nM; in experiment [2], 100 to 1000 nM.
On the same counts, the results for `C[C@@H](Oc1ccc2c(-c3ccc(F)cc3Cl)ccnc2c1)C(=O)N1CCCC1` [Compound 42, (2R)-2-[[4-(2-chloro-4-fluoro-phenyl)-7-quinolyl]oxy]-1-pyrrolidin-1-yl-propan-1-one] are 50 to 500 nM and 100 to 1000 nM.
In the same order, the values of `C[C@@H](Oc1ccc2c(-c3ccc(F)cc3Cl)ccnc2c1)C(=O)N(C)C` [Compound 45, (2R)-2-[[4-(2-chloro-4-fluoro-phenyl)-7-quinolyl]oxy]-N,N-dimethyl-propanamide] are 50 to 500 nM and 100 to 1000 nM.
On the same counts, the results for `O=C(O)[C@H]1CCCN(C(=O)COc2ccc3c(-c4ccccc4Cl)ccnc3c2)C1` [Compound 46, (3S)-1-[2-[[4-(2-chlorophenyl)-7-quinolyl]oxy]acetyl]piperidine-3-carboxylic acid] are 50 to 500 nM and 100 to 1000 nM.
Take `C[C@@H](Oc1ccc2c(-c3ccc(F)cc3Cl)ccnc2c1)C(=O)NC(C)(C)C` [Compound 47, (2R)-N-tert-butyl-2-[[4-(2-chloro-4-fluoro-phenyl)-7-quinolyl]oxy]propanamide]: the IC50 in experiment [1] was 10 to 50 nM; in experiment [2] it was 100 to 1000 nM.
On the same counts, the results for `CC(C)NC(=O)[C@@H](C)Oc1ccc2c(-c3ccccc3Cl)ccnc2c1` [Compound 48, (2R)-2-[[4-(2-chlorophenyl)-7-quinolyl]oxy]-N-isopropyl-propanamide] are 50 to 500 nM and 100 to 1000 nM.
In the same order, the values of `CCOC(=O)C[C@H]1CCCN(C(=O)[C@@H](C)Oc2ccc3c(-c4ccccc4C)cc(C)nc3c2)C1` [Compound 49, ethyl 2-[(3R)-1-[(2R)-2-[[2-methyl-4-(o-tolyl)-7-quinolyl]oxy]propanoyl]-3-piperidyl]acetate] are 10 to 50 nM and 100 to 1000 nM.
Consider `CCOC(=O)[C@@H](C)Oc1ccc2c(-c3ccccc3Cl)ccnc2c1` [Compound 50, ethyl (2R)-2-[[4-(2-chlorophenyl)-7-quinolyl]oxy]propanoate], for which the IC50 in experiment [1] is 10 to 50 nM; in experiment [2], 100 to 1000 nM.
On to `Cc1ccccc1-c1cc(Cl)nc2cc(O[C@H](C)C(=O)N3CCC[C@H](C(N)=O)C3)ccc12` [Compound 52, (3S)-1-[(2R)-2-[[2-chloro-4-(o-tolyl)-7-quinolyl]oxy]propanoyl]piperidine-3-carboxamide], for which the IC50 in experiment [1] was in the range of 10 to 50 nM; in experiment [2], 100 to 1000 nM.
